# Measured values from patent publication US9889105B2, “In vivo method for treating, inhibiting, and/or prophylaxis of cancer, such as pancreatic cancer” (U.S. Department of Veterans Affairs, priority 2010, dated 2018).
# Tests used:
# [1] = test system: MIA-PaCa-2 xenograft tumor; experiment: Apoptosis in xenograft tumors (cleaved caspase 3, TUNEL, Bax/Bcl-2); assay type: in vivo, athymic (nude) mice
# Protocol: FIG. 6C illustrates apoptosis. Top, tumor tissues were processed for Cleaved Caspase 3 immunohistochemistry. […] Caspase 3, Bax and Bcl-2 (middle) expressions of pancreatic tumors from same crocetinic acid-treated and control animals using Western Blot were carried out and Bax/Bcl-2 ratio was also determined (bottom). Columns, mean from six different animals; bars, SD (B and C). *, P<0.05; **, P<0.001 versus untreated control (Student's t test);
# To explore whether the regression of tumor growth by crocetin is due to inhibition of proliferation, apoptotic cell death or both, we first evaluated PCNA (proliferating cell nuclear antigen) expression and then EGFR expression in tumors using histochemical analysis. […] Next, apoptosis by TUNEL assay was investigated in the tumors of mice treated with or without crocetin.
# EGFR [2] = experiment: EGFR expression and phosphorylation in xenograft tumors (immunohistochemistry, Western blot); assay type: in vivo, athymic (nude) mice
# Protocol: FIG. 6B illustrates expression of EGFR and Akt. Tissue sections were obtained from human pancreatic cancer tumors growing in nude mice as described in FIG. 5, and stained for pEGFR and pAkt as described in Materials and Methods section (below). Middle, EGFR and Akt expression of pancreatic tumors from same crocetinic acid-treated and untreated control animals using Western Blot as described in FIG. 4B, was determined. Phophorylated (p-EGFR) and total protein of EGFR and phophorylated Akt and total Akt expressed as ratio between them normalized with b-actin was shown (bottom);
# The immuno-Western blot analyses were the same as described earlier by Banerjee et al. (Reference 26). Briefly, MIA-PaCa-2 and BxPC-3 cells following treatment with or without crocetin and tumor samples were homogenized. […] Protein concentration was measured by using the Comassie blue reagent assay (Pierce, Rockford, Ill.). […] The antigen-antibody reactions were detected with HRP-conjugated anti-rabbit or anti-mouse IgG for one hour in room temperature. Immunoreactions were visualized by the ECL ([…]) chemiluminescence reagent kit (Pierce, Rockford, Ill.) and relative expression of proteins were calculated by densitometric analyses using ID image Analysis Software version 3.6 (Eastman Kodak Company, Rochester, N.Y.). […]
# [3] = in vivo; cited from earlier work
# Panc-1 cells [4] = experiment: Click-it EdU microplate proliferation assay; assay type: cell-based, human; settings: for potency in proliferation assay relative to crude crocetin: Panc-1, 48-72 hours, versus CC; for inhibiting proliferation: Panc-1 cells
# Protocol: (§1) Pancreatic cancer cells were plated at desired density onto 96-well corning tissue culture plates. After 24 hours, cells were treated for 72 hours with different concentrations (1-50 μM) of purified crocetin and crude/commercial crocetin. Cells were labelled with Click-it EdU and were fixed. Then fixed cells were incubated with anti-Oregon Green antibody conjugated to horseradish peroxidase and measured flurescent product (excitation/emission˜568/585).
# […] We have also used higher doses (25, 50 and 100 μM) in this experiment and it needs about 50-100 concentration of CC for inhibition of proliferation and increase of apoptosis at the level of 1 and 10 μm of PC. Treated cells were then labeled with Brdu and cells were assayed by Invitrogen Click-it Edu fluorimetric microplate proliferation kit and apoptosis assay kit.
# [5] = test system: pancreatic CSCs (pancospheres); experiment: Pancospheroid formation assay; assay type: cell-based; settings: dose dependent, 0, 1, 5, 10, 20 μM
# Protocol: FIG. 7C illustrates spheroid formation assay. Stemness pancreatic cancer cells ware determined using spheroid assay in PC versus CC in different concentrations (0, 1, 5, 10, 20 μM); and
# Spheroids were prepared as previously described (Reference 17). Briefly, 1000 cells/well in DMEM/F12 (Invitrogen, France) supplemented with EGF (20 ng/ml, Invitrogen) and B27 (1×, Invitrogen) were distributed in ultra-low attachment plates 6 well plates. Plates were placed in a humidified atmosphere of 5% CO2 at 37° C. Numbers of pancosphers formation, after 6-8 days culture, were counted under a light microscopy and quantified by Celigo software.
# EGFR [6] = experiment: Western blot of EGFR (phosphorylated and total) in Panc-1 cells; assay type: cell-based, human; design: dose or concentration left out as unconfirmed; settings: Panc-1, compared with CC
# Protocol: (§2) FIG. 4B illustrates effect of purified crocetin (PC) and crude crocetin (CC) on EGFR (epidermal growth factor receptor), Akt signaling and Bax/Bcl-2 on Panc-1 cells.
# (§3) The immuno-Western blot analyses were the same as described earlier by Banerjee et al. (Reference 26). Briefly, MIA-PaCa-2 and BxPC-3 cells following treatment with or without crocetin and tumor samples were homogenized. Then, both cell and tumor lysates were spun at 18000 g for 1 hr at 4° C., and the supernatants were collected for immunodetection. Protein concentration was measured by using the Comassie blue reagent assay (Pierce, Rockford, Ill.). Equal amount of protein were resolved in 10% SDS-PAGE, transferred onto nitrocellulose membranes. Membranes were blocked with super block (Pierce, Rockford, Ill.) followed by incubation with appropriate primary antibodies at 4° C., overnight. The antigen-antibody reactions were detected with HRP-conjugated anti-rabbit or anti-mouse IgG for one hour in room temperature. Immunoreactions were visualized by the ECL ([…]) chemiluminescence reagent kit (Pierce, Rockford, Ill.) and relative expression of proteins were calculated by densitometric analyses using ID image Analysis Software version 3.6 (Eastman Kodak Company, Rochester, N.Y.).
# pancreatic cancer cells = experiment: Cytotoxicity against pancreatic cancer cells; assay type: cell-based; settings: dose- and time-dependent
# Protocol: The human pancreatic adenocarcinoma cell lines MIA-PaCa-2, BxPC3, Capan-1 and ASPC-1 were obtained from the American Type Culture Collection (ATCC, Manassas, Va., USA) and grown in Dulbecco's modified Eagles medium (DMEM, Sigma Chemical Co, St Louis, Mo.) supplemented with 1 mM sodium pyruvate (Fisher Chemical Company), 100 U/ml of penicillin and 100 U/ml of streptomycin (Sigma Chemical Co, St Louis, Mo.) and 10% FBS (Hyclone, Road Logan, Utah) at 37° C. in a humidified tissue culture incubator containing 5% CO2 and 95% air. ˜70% confluent cells were treated with different concentrations (1-50 μM) of purified crocetinic acid and commercial crocetin for 72 h.
# BxPc3 cells [7] = experiment: Proliferation assay in BxPC3 cells; assay type: cell-based, human; settings: comparison to commercial crocetin
# Protocol: as §1
# PCNA = PCNA histochemical analysis of xenograft tumor tissue; assay type: in vivo, athymic (nude) mice; settings: versus untreated
# Protocol: FIG. 6A illustrates expression of PCNA (proliferating cell nuclear antigen). Cell proliferation in tumor tissues, obtained from athymic mice as depicted in FIG. 5, was evaluated by staining for PCNA using histochemical analysis.
# Immunohistochemical analysis was performed according to our previous described method (27) using Zymed broad range immunohistochemical kits (Zymed Laboratories, CA). Tumor tissue samples were fixed in 4% buffered formalin and embedded in paraffin. The serial sections of 5 μm were cut. The tissue sections were deparaffinized and were hydrated in different concentrations of ethanol (i.e. 100%, 90%, 70%, and 50%). Endogenous peroxidase activity was blocked at room temperature by incubating in hydrogen peroxide in methanol (1:9). Slides were washed with PBS (phosphate buffered saline) and nonspecific binding was blocked by blocking solution for 10 min. The sections were incubated with respective primary antibody in a humidified chamber at 4° C. overnight. The tissues were incubated with biotynylated secondary antibody (Zymed kit). The slides were then incubated with HRP (horseradish peroxidase) linked enzyme conjugate for 10 min. Positive reactions were visualized by incubating slides with stable 3,3′-diaminobenzidine (DAB) solution (Zymed kit) and counterstained with haematoxylin. The slides were dehydrated and mounted in permount for microscopic examination.
# BxPc3 cells [8] = experiment: Apoptosis assay in BxPC3 cells; assay type: cell-based, human; settings: comparison to commercial crocetin
# Protocol: (§4) FITC Annexin V and PI for flow cytometry provide a rapid and convenient assay for apoptosis. Treated and control cells were incubated with annexin V conjugate and propidium iodide (PI). Then cells were deposited onto slides for fluorescence microscopy. Cells were also used for flow cytometry analysis for live, apoptotic and dead cells using annexin V conjugated to green-fluorescent FITC dye and propidium iodide (PI). Propidium iodide stains necrotic cells with red fluorescence whereas green FITC dye stains apoptotic cells.
# Panc-1 cells [9] = experiment: Apoptosis assay (apoptosis kit, Annexin V-FITC flow cytometry and fluorescence microscopy); assay type: cell-based, human; settings: for potency in apoptosis assay relative to crude crocetin: Panc-1, 48-72 hours, versus CC; for stimulating apoptosis: Panc-1 cells
# Protocol: as §4
# We treated Panc-1 pancreatic cancer cells with either purified crocetin or PC (fraction 5 of FIG. 2A) derived from alkaline treatment or crude commercial crocetin or CC (1 and 10 μM concentrations) for 48-72 hours. We have also used higher doses (25, 50 and 100 μM) in this experiment and it needs about 50-100 concentration of CC for inhibition of proliferation and increase of apoptosis at the level of 1 and 10 μm of PC. Treated cells were then labeled with Brdu and cells were assayed by Invitrogen Click-it Edu fluorimetric microplate proliferation kit and apoptosis assay kit.
# DCLK-1 = experiment: Western blot of DCLK1 expression; assay type: cell-based, human; design: dose or concentration left out as unconfirmed; settings: Mia-PaCa2 cells
# Protocol: FIG. 7D illustrates DCLK1 expression. Western blot analysis of DCLK1 after treatment of Mia-PaCa2 cells treated with 10 mM of CC and PC of #5, #3 and #1 HPLC fractions.
# as §3
# [10] = test system: Sonic Hedgehog signaling pathway; experiment: Western blot of Sonic Hedgehog signaling pathway proteins and target genes; assay type: cell-based
# Source text: FIG. 7A illustrates western blots of onic Hedgehog signaling pathways proteins (sonic hedgehog, Gli-1, SUFU, Smoothened with beta-actin) expressions in treated lanes of I (CC), 2 (PC #5), 3 (PC #3) and 4 (PC #1).
# FIG. 7B illustrates sonic hedgehog target genes: Patched, p21, cyclin D1 with actin treated by CC (Lane 1) and PC #5 (Lane 2), PC #3 (Lane 3) and PC #1 (Lane 4).
# as §3
# human cells = settings: cited from earlier work
# [11] = test system: MIA-PaCa-2 xenograft tumor; experiment: Pancreatic cancer xenograft tumor growth in athymic nude mice; assay type: in vivo; settings: 0.5 mg/kg, oral, 0 to 21 days, in comparison to control
# Protocol: FIG. 5 illustrates pancreatic cancer xenograft tumor growth in athymic (nude) mice. […] The tumor size was measured (right) from the start date of crocetin treatment (0 day) to end date of crocetin treatment (21 days) in comparison to control (no treatment). Number of animals is 5 in the control and treated group;
# MIA-PaCa-2 cells (2.5×10^6) were injected into the right hind leg of each mouse for the development of tumor. The mice were divided into two groups (6 mice per group) with a control group and crocetin treatment group. After development of palpable tumor, the tumor size was measured twice in a week. When tumors are well established (approximately 0.34 cm^3); treatment was started. The treatment group received crocetin at 0.5 mg/kg/day orally dissolved in 15 ml of peptamen for 12 hours during dark for 30 days and the dose is in agreement with other investigators (References 14, 17, 20 and 27). Tumor size was monitored twice weekly, and its volume calculated as […], where a=length and b=width. Control group received only peptamen. The mice were given solid food during light time following liquid peptamen diet at dark. All mice were sacrificed after 30 days following treatment and tumors were taken out and stored at −80° C. […]
# Akt = experiment: Western blot of Akt signaling in Panc-1 cells; assay type: cell-based, human; settings: 10 mM, listed as PC
# Protocol: as §2, §3
# Panc-1 cells [12] = experiment: Migration of Panc-1 cells in Bowden chamber; assay type: cell-based, human; settings: 1 and 10 μM, 24 hours, compared with CC
# Protocol: FIG. 4A illustrates effect of purified crocetin (PC) and crude crocetin (CC) on migration of Panc-1 cells. Panc-1 cells were incubated with PC and CC at concentrations of 1 and 10 μM in Bowden chamber for 24 hours and migration was studied.
# Bax/Bcl-2 = experiment: Western blot of Bax/Bcl-2 in Panc-1 cells; assay type: cell-based, human; settings: Panc-1, Western blot
# Protocol: as §2, §3
# [13] = in comparison to commercial crocetin
compound,measurement,setting,value
CC(/C=C/C=C(\C)C(=O)O)=C\C=C\C=C(C)\C=C\C=C(/C)C(=O)O [crocetin],ratio of Bax/Bcl-2 in pancreatic tumors,"[1]; xenograft tumors, Western blot",significantly increased
same,TUNEL assay positive cells in tumors,"[1]; xenograft tumors, versus untreated",elevated markedly
same,EGFR activity (ratio of phosphorylated and unphosphorylated form) in tumors,EGFR [2],significantly impaired
same,EGFR expression and phosphorylation in tumors,EGFR [2]; versus untreated,significantly reduced
same,LD50,[3],2000 mg/kg
CC(C=CC=C(C)C(=O)O)=CC=CC=C(C)C=CC=C(C)C(=O)O [crocetinic acid],inhibition in proliferation,"Panc-1 cells [4]; 1 µM, compared with CC",highly potent inhibition
same,potency in proliferation assay relative to crude crocetin,Panc-1 cells [4]; listed as #5,50 times
same,potency in proliferation assay relative to crude crocetin,Panc-1 cells [4]; listed as PC,50 times
same,potency in proliferation assay relative to crude crocetin,Panc-1 cells [4]; listed as purified crocetin,about 50 times
same,inhibiting proliferation,Panc-1 cells [4],significantly inhibited
same,inhibiting proliferation,Panc-1 cells [4]; listed as #5,promising effect
same,number and size of primary and secondary pancospheres (spheroid formation),[5],decreased
same,number and size of primary and secondary pancospheres (spheroid formation),[5]; listed as #5,significant inhibition
same,EGFR phosphorylation,EGFR [6],significantly inhibited
same,cytotoxicity,pancreatic cancer cells,significant cytotoxicity
same,inhibition of proliferation,BxPc3 cells [7],significantly inhibited
same,PCNA expression in tumors,PCNA,significantly decreased
same,stimulation of apoptosis,BxPc3 cells [8],stimulated apoptosis
same,apoptosis,"Panc-1 cells [9]; 1 µM, compared with CC",increase
same,potency in apoptosis assay relative to crude crocetin,Panc-1 cells [9]; listed as #5,50 times
same,potency in apoptosis assay relative to crude crocetin,Panc-1 cells [9]; listed as PC,50 times
same,potency in apoptosis assay relative to crude crocetin,Panc-1 cells [9]; listed as purified crocetin,about 50 times
same,stimulating apoptosis,Panc-1 cells [9],stimulated apoptosis
same,stimulating apoptosis,Panc-1 cells [9]; listed as #5,promising effect
same,apoptosis by flow cytometry and fluorescence microscopy,Panc-1 cells [9]; lower doses,significant increase
same,apoptosis by cleaved caspase 3 immunohistochemistry in tumors,"[1]; daily treatment, versus vehicle",Increased apoptosis
same,DCLK-1 expression,DCLK-1,significantly inhibited
same,DCLK-1 expression,DCLK-1; listed as 5,reduction
same,Gli1 expression,[10]; Western blot,inhibited
same,SUFU expression,[10]; Western blot,inhibited
same,smoothened expression,[10]; Western blot,inhibited
same,cyclin D1 expression,"[10]; Western blot, target protein",inhibited
same,patched expression,[10]; [13],increased expression
same,sonic hedgehog (Shh) expression,[10]; [13],significantly inhibited
same,patched expression,"[10]; in comparison to commercial crocetin, listed as 5",increased
same,toxicity to human cells,human cells,relatively nontoxic
same,tumor growth,[11],significantly inhibited
same,Akt expression and phosphorylation,Akt,significantly inhibited
same,migration,Panc-1 cells [12],significantly inhibited
same,Bax/Bcl-2 ratio,Bax/Bcl-2,increase
same,Bcl-2,Bax/Bcl-2,decrease
